Assay results reported in the supplement of paper PMC11208160.

Assay: recombinant barcode read abundance after kanamycin selection (control-corrected) (log10(CPM+1)); higher = more efficient recombination; sequences stand for … in AGTGCAGAGAAAATCGGCCAGTTTTCTCTGCCTGCAGTCCGCATGCCGT…AGATTTATGCAGCGGACTGCCTTTCTCCCAAAGTGATAAACCGGACAGTATCATGGACCGGTTTTCCCGGTAATCCGTATTTGCAAGGTTGGTTTCACT; site = the 11-nt target
Method in brief: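 Recombination efficiency comes from barcode counts at recombinant junctions, converted to counts per million, averaged and corrected against the control. Values appear as log10(CPM+1). They were obtained from a pooled E. coli screen in which each oligo paired a target with an IS621 bridge RNA target-binding loop, and cells were plated in duplicate on chloramphenicol/ampicillin LB agar or on chloramphenicol/ampicillin/kanamycin with 0.1 mM IPTG.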
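Also: IS621 recombinase and bridge RNA in Escherichia coli cells.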

TGTACGCCTTGGGTTCTAACCTGTTGCCT (site GAGGTAACTGT)
recombinant barcode read abundance (log10): 0.0511

TGTACGCCTTGGGTTCTAACCTGTTGCCT (site TGTACGCCTAG)
recombinant barcode read abundance (log10): 0.0173

TGTAGGACTTGGGTTCTAACCTGTTGCCT (site AGTAGGACTAG)
recombinant barcode read abundance (log10): 0.0549

TGTAGGACTTGGGTTCTAACCTGTTGCCT (site CGTAGGACTAG)
recombinant barcode read abundance (log10): 0.142

TGTAGGACTTGGGTTCTAACCTGTTGCCT (site GGTAGGACTAG)
recombinant barcode read abundance (log10): 0.0264

TGTAGGACTTGGGTTCTAACCTGTTGCCT (site TGTAGGACTAG)
recombinant barcode read abundance (log10): 0.553

TGTAGTCCTTGGGTTCTAACCTGTTGCGT (site TGTAGTCCTAA)
recombinant barcode read abundance (log10): 0.062

TGTAGTCCTTGGGTTCTAACCTGTTGCGT (site TGTAGTCCTAC)
recombinant barcode read abundance (log10): 1.19

TGTAGTCCTTGGGTTCTAACCTGTTGCGT (site TGTAGTCCTAG)
recombinant barcode read abundance (log10): 0.293

TGTAGTCCTTGGGTTCTAACCTGTTGCGT (site TGTAGTCCTAT)
recombinant barcode read abundance (log10): 0.0925

TGTCCCGCTTGGGTTCTAACCTGTTGCCT (site TGTATCGCTAG)
recombinant barcode read abundance (log10): 0.0575

TGTCCCGCTTGGGTTCTAACCTGTTGCCT (site TGTCCCGCTAG)
recombinant barcode read abundance (log10): 0.708

TGTCCCTCTTGGGTTCTAACCTGTTGCCT (site TGTACCTCTAG)
recombinant barcode read abundance (log10): 0.014

TGTCCCTCTTGGGTTCTAACCTGTTGCCT (site TGTCCCTCTAG)
recombinant barcode read abundance (log10): 0.769

TGTCCCTCTTGGGTTCTAACCTGTTGCCT (site TGTGCCTCTAG)
recombinant barcode read abundance (log10): 0.111

TGTCCCTCTTGGGTTCTAACCTGTTGCCT (site TGTTCCTCTAG)
recombinant barcode read abundance (log10): 0.0962

TGTCGACCTTGGGTTCTAACCTGTTGCCT (site AGTCGACCTAG)
recombinant barcode read abundance (log10): 0.596

TGTCGACCTTGGGTTCTAACCTGTTGCCT (site CGTCGACCTAG)
recombinant barcode read abundance (log10): 0.113

TGTCGACCTTGGGTTCTAACCTGTTGCCT (site GGTCGACCTAG)
recombinant barcode read abundance (log10): 0.0191

TGTCGACCTTGGGTTCTAACCTGTTGCCT (site TGTCGACCTAG)
recombinant barcode read abundance (log10): 0.709

TGTCGGACTTGGGTTCTAACCTGTTGCAG (site TGTCGGACTAT)
recombinant barcode read abundance (log10): 0.197

TGTCGGACTTGGGTTCTAACCTGTTGCAG (site TGTCGGACTCT)
recombinant barcode read abundance (log10): 1.01

TGTCGGACTTGGGTTCTAACCTGTTGCAG (site TGTCGGACTGT)
recombinant barcode read abundance (log10): 0.127

TGTCGGACTTGGGTTCTAACCTGTTGCAG (site TGTCGGACTTT)
recombinant barcode read abundance (log10): 0.041

TGTGCCTCTTGGGTTCTAACCTGTTGCCT (site TGTACCTCTAG)
recombinant barcode read abundance (log10): 0.368

TGTGCCTCTTGGGTTCTAACCTGTTGCCT (site TGTCCCTCTAG)
recombinant barcode read abundance (log10): 0.02

TGTGCCTCTTGGGTTCTAACCTGTTGCCT (site TGTGCCTCTAG)
recombinant barcode read abundance (log10): 0.564

TGTGCCTCTTGGGTTCTAACCTGTTGCCT (site TGTTCCTCTAG)
recombinant barcode read abundance (log10): 0.173

TGTTACCCTTGGGTTCTAACCTGTTGCCT (site TGGTACCCTAG)
recombinant barcode read abundance (log10): 0.0146

TGTTACCCTTGGGTTCTAACCTGTTGCCT (site TGTTACCCTAG)
recombinant barcode read abundance (log10): 0.434

TGTTAGACTTGGGTTCTAACCTGTTGCCT (site TGTTAGACTAG)
recombinant barcode read abundance (log10): 0.164

TGTTAGACTTGGGTTCTAACCTGTTGCCT (site TGTTAGTCTCG)
recombinant barcode read abundance (log10): 0.113

TGTTCATCTTGGGTTCTAACCTGTTGCCT (site TGTTCATCTAG)
recombinant barcode read abundance (log10): 0.00521

TGTTCATCTTGGGTTCTAACCTGTTGCCT (site TGTTCTTCTAG)
recombinant barcode read abundance (log10): 0.0677

TGTTCTTCTTGGGTTCTAACCTGTTGCCT (site TGTTCATCTAG)
recombinant barcode read abundance (log10): 0.0245

TGTTCTTCTTGGGTTCTAACCTGTTGCCT (site TGTTCTTCTAG)
recombinant barcode read abundance (log10): 0.12

TGTTGGCCTTGGGTTCTAACCTGTTGCCT (site TGTTGCACTAG)
recombinant barcode read abundance (log10): 0.0375

TGTTGGCCTTGGGTTCTAACCTGTTGCCT (site TGTTGGCCTAG)
recombinant barcode read abundance (log10): 0.143

TTAACTACTTGGGTTCTAACCTGTTGCTA (site TTAACTACTAA)
recombinant barcode read abundance (log10): 0

TTAACTACTTGGGTTCTAACCTGTTGCTA (site TTAACTACTCA)
recombinant barcode read abundance (log10): 0.0937

TTAACTACTTGGGTTCTAACCTGTTGCTA (site TTAACTACTGA)
recombinant barcode read abundance (log10): 0.0479

TTAACTACTTGGGTTCTAACCTGTTGCTA (site TTAACTACTTA)
recombinant barcode read abundance (log10): 0.152

TTAACTACTTGGGTTCTAACCTGTTGCTG (site TTAACTACTAA)
recombinant barcode read abundance (log10): 0.0189

TTAACTACTTGGGTTCTAACCTGTTGCTG (site TTAACTACTCA)
recombinant barcode read abundance (log10): 0.425

TTAACTACTTGGGTTCTAACCTGTTGCTG (site TTAACTACTGA)
recombinant barcode read abundance (log10): 0.0228

TTAACTACTTGGGTTCTAACCTGTTGCTG (site TTAACTACTTA)
recombinant barcode read abundance (log10): 0.0609

TTACGCTCTTGGGTTCTAACCTGTTGCTA (site GGTTATCCTCC)
recombinant barcode read abundance (log10): 0.191

TTACGCTCTTGGGTTCTAACCTGTTGCTA (site TTACGCTCTTA)
recombinant barcode read abundance (log10): 0.621

TTACGGGCTTGGGTTCTAACCTGTTGCGG (site TTACGAGCTCC)
recombinant barcode read abundance (log10): 1.71

TTACGGGCTTGGGTTCTAACCTGTTGCGG (site TTACGCGCTCC)
recombinant barcode read abundance (log10): 0.183

TTACGGGCTTGGGTTCTAACCTGTTGCGG (site TTACGGGCTCC)
recombinant barcode read abundance (log10): 2.58

TTACGGGCTTGGGTTCTAACCTGTTGCGG (site TTACGTGCTCC)
recombinant barcode read abundance (log10): 0.189

TTACTAGCTTGGGTTCTAACCTGTTGCGT (site AGACTAGCTAC)
recombinant barcode read abundance (log10): 0.0536

TTACTAGCTTGGGTTCTAACCTGTTGCGT (site TTACTAGCTAC)
recombinant barcode read abundance (log10): 1.98

TTACTCTCTTGGGTTCTAACCTGTTGCCT (site TAACTCTCTAG)
recombinant barcode read abundance (log10): 0.127

TTACTCTCTTGGGTTCTAACCTGTTGCCT (site TCACTCTCTAG)
recombinant barcode read abundance (log10): 0.141

TTACTCTCTTGGGTTCTAACCTGTTGCCT (site TGACTCTCTAG)
recombinant barcode read abundance (log10): 0.137

TTACTCTCTTGGGTTCTAACCTGTTGCCT (site TTACTCTCTAG)
recombinant barcode read abundance (log10): 2.13

TTAGGGACTTGGGTTCTAACCTGTTGCCT (site TTAGGGACTAG)
recombinant barcode read abundance (log10): 2.18

TTAGGGACTTGGGTTCTAACCTGTTGCCT (site TTAGGGCCTAG)
recombinant barcode read abundance (log10): 0.0947

TTAGGGACTTGGGTTCTAACCTGTTGCCT (site TTAGGGGCTAG)
recombinant barcode read abundance (log10): 0.517

TTAGGGACTTGGGTTCTAACCTGTTGCCT (site TTAGGGTCTAG)
recombinant barcode read abundance (log10): 0.108

TTAGGGGCTTGGGTTCTAACCTGTTGCCT (site TTAGGGACTAG)
recombinant barcode read abundance (log10): 0.911

TTAGGGGCTTGGGTTCTAACCTGTTGCCT (site TTAGGGCCTAG)
recombinant barcode read abundance (log10): 0.08

TTAGGGGCTTGGGTTCTAACCTGTTGCCT (site TTAGGGGCTAG)
recombinant barcode read abundance (log10): 1.51

TTAGGGGCTTGGGTTCTAACCTGTTGCCT (site TTAGGGTCTAG)
recombinant barcode read abundance (log10): 0.0155

TTAGGTCCTTGGGTTCTAACCTGTTGCAG (site TTAGATCCTAT)
recombinant barcode read abundance (log10): 0.182

TTAGGTCCTTGGGTTCTAACCTGTTGCAG (site TTAGGTCCTCT)
recombinant barcode read abundance (log10): 2.5

TTAGTAACTTGGGTTCTAACCTGTTGCCT (site CTAGTACCTAG)
recombinant barcode read abundance (log10): 0.0115

TTAGTAACTTGGGTTCTAACCTGTTGCCT (site TTAGTAACTAG)
recombinant barcode read abundance (log10): 1.21

TTAGTACCTTGGGTTCTAACCTGTTGCCT (site TTAGTACCTAG)
recombinant barcode read abundance (log10): 2.55

TTAGTACCTTGGGTTCTAACCTGTTGCCT (site TTAGTCCCTAG)
recombinant barcode read abundance (log10): 0.218

TTAGTACCTTGGGTTCTAACCTGTTGCCT (site TTAGTGCCTAG)
recombinant barcode read abundance (log10): 0.135

TTAGTACCTTGGGTTCTAACCTGTTGCCT (site TTAGTTCCTAG)
recombinant barcode read abundance (log10): 0.369

TTAGTCCCTTGGGTTCTAACCTGTTGCCG (site CTAGTCCCTCG)
recombinant barcode read abundance (log10): 1.09

TTAGTCCCTTGGGTTCTAACCTGTTGCCG (site TTAGTCCCTCG)
recombinant barcode read abundance (log10): 2.14

TTAGTGCCTTGGGTTCTAACCTGTTGCCT (site TTAGTACCTAG)
recombinant barcode read abundance (log10): 1.55

TTAGTGCCTTGGGTTCTAACCTGTTGCCT (site TTAGTCCCTAG)
recombinant barcode read abundance (log10): 0.0383

TTAGTGCCTTGGGTTCTAACCTGTTGCCT (site TTAGTGCCTAG)
recombinant barcode read abundance (log10): 2.14

TTAGTGCCTTGGGTTCTAACCTGTTGCCT (site TTAGTTCCTAG)
recombinant barcode read abundance (log10): 0.0759

TTAGTTCCTTGGGTTCTAACCTGTTGCCT (site TTAGTACCTAG)
recombinant barcode read abundance (log10): 0.146

TTAGTTCCTTGGGTTCTAACCTGTTGCCT (site TTAGTCCCTAG)
recombinant barcode read abundance (log10): 0.186

TTAGTTCCTTGGGTTCTAACCTGTTGCCT (site TTAGTGCCTAG)
recombinant barcode read abundance (log10): 0

TTAGTTCCTTGGGTTCTAACCTGTTGCCT (site TTAGTTCCTAG)
recombinant barcode read abundance (log10): 0.634

TTATAAGCTTGGGTTCTAACCTGTTGCCA (site GTATGAGCTTG)
recombinant barcode read abundance (log10): 0.0336

TTATAAGCTTGGGTTCTAACCTGTTGCCA (site TTATAAGCTTG)
recombinant barcode read abundance (log10): 0.269
